The values that follow come from patent US20250195513A1, “DEGRADATION OF IRAK4 BY CONJUGATION OF IRAK4 INHIBITORS WITH E3 LIGASE LIGAND AND METHODS OF USE” (BeiGene, Ltd., priority 2022, published 2025).

For assay [1], the target named is T1, IRAK4 (Homo sapiens, UniProt Q9NWZ3).
T1 construct: endogenous in cells; host or cells: Karpas299
T1 sequence (Q9NWZ3 1-460): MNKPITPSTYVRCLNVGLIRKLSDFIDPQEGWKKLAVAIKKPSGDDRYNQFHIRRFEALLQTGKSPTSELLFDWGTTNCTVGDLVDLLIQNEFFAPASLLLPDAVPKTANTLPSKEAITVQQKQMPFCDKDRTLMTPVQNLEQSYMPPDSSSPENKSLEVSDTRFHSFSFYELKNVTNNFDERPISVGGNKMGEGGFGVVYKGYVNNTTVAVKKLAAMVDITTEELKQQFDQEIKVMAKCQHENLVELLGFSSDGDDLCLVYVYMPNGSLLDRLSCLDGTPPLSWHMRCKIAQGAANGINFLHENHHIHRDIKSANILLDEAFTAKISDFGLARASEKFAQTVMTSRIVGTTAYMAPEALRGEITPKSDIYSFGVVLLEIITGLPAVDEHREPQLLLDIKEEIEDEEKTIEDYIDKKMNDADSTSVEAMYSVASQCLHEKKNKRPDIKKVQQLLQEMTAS
Kind of assay: IRAK4 Degradation Assay with Human Serum (Karpas299, HTRF/TR-FRET). The assay is classed as cell-based. To be noted: Karpas-299 in human serum, 24 hrs treatment; for DC50: read-out: IRAK4 degradtion with human serum assay DC50; for Dmax: read-out: IRAK4 degradtion with human serum assay Dmax (%). In outline:
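Remaining IRAK4 measured by TR-FRET immunoassay on lysates of Karpas299 cells exposed 24 h to compound dilution series in human serum AB. DC50 derived from a Hill-slope fit of % degradation versus concentration.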
A general note: Time-resolved FRET reads energy transfer from a long-lived donor to a nearby acceptor.

The target in assay [2] is T1, IRAK4. Put plainly: IRAK4 Degradation Assay (Karpas299, HTRF/TR-FRET). Format: cell-based. Particulars: Karpas-299 cells; for Dmax: maximum percentage of degradation. In outline:
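Compound potency as DC50 (IC50) came from four-parameter fits of percent IRAK4 degradation. IRAK4 was measured by HTRF (665/620 nm) in lysates of Karpas299 cells seeded at 0.2 million per well. Cells had been treated with compound dilutions for 5 or 24 h.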

The mark [3] stands for this setting: 24 h treatment, read-out: IRAK4 in Karpas-299 (24 h) Dmax (%).
Setting [4] is: 24 h treatment, read-out: IRAK4 in Karpas-299 (24 h) DC50.

The term DC50 denotes the midpoint of the concentration-degradation curve. Usually Dmax stands for the greatest extent of degradation seen. In the case of `COC[C@H]1CN(C2CCN(c3cc(F)c([C@H]4CCC(=O)NC4=O)c(F)c3)CC2)CCN1[C@H]1CC[C@H](n2cc3cc(NC(=O)c4ccc5cc(C#N)cnn45)c(C(C)(C)O)cc3n2)CC1` [Example 324, 3-cyano-N-(2-((1R,4r)-4-((R)-4-(1-(4-((R)-2,6-dioxopiperidin-3-yl)-3,5-difluorophenyl)piperidin-4-yl)-2-(methoxymethyl)piperazin-1-yl)cyclohexyl)-6-(2-hydroxypropan-2-yl)-2H-indazol-5-yl)pyrrolo[1,2-b]pyridazine-7-carboxamide], the half-maximal degradation concentration (DC50) amounted to 23 nM on IRAK4 [1] and 1 nM at IRAK4 [2] (setting [4]). In addition, the figures for the Dmax at IRAK4 [1] and at IRAK4 [2] (setting [3]) were 99% and 95%, respectively.
Regarding `CC(C)(O)c1cc2nn(C34CC(N5CCN(C(=O)C6CN(c7cc(F)c([C@H]8CCC(=O)NC8=O)c(F)c7)C6)CC5)(C3)C4)cc2cc1NC(=O)c1ccc2cc(C#N)cnn12` [Example 157, (R)-3-cyano-N-(2-(3-(4-(1-(4-(2,6-dioxopiperidin-3-yl)-3,5-difluorophenyl)azetidine-3-carbonyl)piperazin-1-yl)bicyclo[1.1.1]pentan-1-yl)-6-(2-hydroxypropan-2-yl)-2H-indazol-5-yl)pyrrolo[1,2-b]pyridazine-7-carboxamide], the DC50 was 21 nM on IRAK4 [1] and 0.4 nM on IRAK4 [2] (setting [4]). The Dmax on IRAK4 [1] stood at 99%; at IRAK4 [2] (setting [3]), 98%.
The like results for `CC(=O)c1cc2nn([C@H]3CC[C@H](N4CCN(C5CN(c6cc(F)c([C@H]7CCC(=O)NC7=O)c(F)c6)C5)CC4)CC3)cc2cc1NC(=O)c1ccc2cc(C#N)cnn12` [Example 425, N-(6-acetyl-2-((1R,4r)-4-(4-(1-(4-((R)-2,6-dioxopiperidin-3-yl)-3,5-difluorophenyl)azetidin-3-yl)piperazin-1-yl)cyclohexyl)-2H-indazol-5-yl)-3-cyanopyrrolo[1,2-b]pyridazine-7-carboxamide] were, in that order, 19 nM, 0.6 nM, 94% and 98%.
For `CC(C)(O)c1cc2nn([C@H]3CC[C@H](N4CCN(C5CCN(c6cc(F)c(N7CCC(=O)NC7=O)c(F)c6)CC5)CC4)CC3)cc2cc1NC(=O)c1ccc2cc(C#N)cnn12` [Example 293, 3-cyano-N-(2-((1r,4r)-4-(4-(1-(4-(2,4-dioxotetrahydropyrimidin-1(2H)-yl)-3,5-difluorophenyl)piperidin-4-yl)piperazin-1-yl)cyclohexyl)-6-(2-hydroxypropan-2-yl)-2H-indazol-5-yl)pyrrolo[1,2-b]pyridazine-7-carboxamide] the same measures were 9.4 nM, 9.4 nM, 96% and 96%.
Turning to `Cc1cc(C2CCC(=O)NC2=O)c(F)cc1[C@H]1C[C@@H](N2CCN([C@H]3CC[C@H](n4cc5cc(NC(=O)c6ccc7cc(C#N)cnn67)c(C(C)(C)O)cc5n4)CC3)CC2)C1` (stereo partly drawn) [Example 296, 3-cyano-N-(2-((1R,4r)-4-(4-((1s,3S)-3-(4-(2,6-dioxopiperidin-3-yl)-5-fluoro-2-methylphenyl)cyclobutyl)piperazin-1-yl)cyclohexyl)-6-(2-hydroxypropan-2-yl)-2H-indazol-5-yl)pyrrolo[1,2-b]pyridazine-7-carboxamide], the DC50 on IRAK4 [1] was found to be 18 nM; on IRAK4 [2] (5 h treatment, read-out: IRAK4 in Karpas-299 (5 h) DC50), 5.4 nM; at IRAK4 [2] (setting [4]), 1.8 nM. Besides, the Dmax at IRAK4 [1] was determined as 100%; at IRAK4 [2] (5 h treatment, read-out: IRAK4 in Karpas-299 (5 h) Dmax (%)), 91%; on IRAK4 [2] (setting [3]), 97%.
Take `C[C@@H]1CN(CC2CN(c3cc(F)c([C@H]4CCC(=O)NC4=O)c(F)c3)C2)CCN1[C@H]1CC[C@H](n2cc3cc(NC(=O)c4ccc5cc(C#N)cnn45)c(C(C)(C)O)cc3n2)CC1` [Example 300, 3-cyano-N-(2-((1R,4r)-4-((R)-4-((1-(4-((R)-2,6-dioxopiperidin-3-yl)-3,5-difluorophenyl)azetidin-3-yl)methyl)-2-methylpiperazin-1-yl)cyclohexyl)-6-(2-hydroxypropan-2-yl)-2H-indazol-5-yl)pyrrolo[1,2-b]pyridazine-7-carboxamide]: the DC50 at IRAK4 [1] is 2.4 nM; on IRAK4 [2] (setting [4]), 0.9 nM. Moreover, the Dmax was found to be 102% on IRAK4 [1] and 96% on IRAK4 [2] (setting [3]).
With `CC(C)(O)c1cc2nn(C34CC(N5CCN(CCc6cc(F)c([C@H]7CCC(=O)NC7=O)c(F)c6)CC5)(C3)C4)cc2cc1NC(=O)c1ccc2cc(C#N)cnn12` [Example 159, (R)-3-cyano-N-(2-(3-(4-(4-(2,6-dioxopiperidin-3-yl)-3,5-difluorophenethyl)piperazin-1-yl)bicyclo[1.1.1]pentan-1-yl)-6-(2-hydroxypropan-2-yl)-2H-indazol-5-yl)pyrrolo[1,2-b]pyridazine-7-carboxamide], the figures for the half-maximal degradation concentration (DC50) on IRAK4 [1] and at IRAK4 [2] (setting [4]) were 5.2 nM and 1.5 nM, respectively. The Dmax at IRAK4 [1] turned out to be 94%; at IRAK4 [2] (setting [3]), 95%.
Turning to `COC[C@@H]1CN(C[C@@H]2CCN(c3cc(F)c([C@H]4CCC(=O)NC4=O)c(F)c3)C2)CCN1[C@H]1CC[C@H](n2cc3cc(NC(=O)c4ccc5cc(C#N)cnn45)c(C(C)(C)O)cc3n2)CC1` [Example 388, 3-cyano-N-(2-((1S,4r)-4-((S)-4-(((S)-1-(4-((R)-2,6-dioxopiperidin-3-yl)-3,5-difluorophenyl)pyrrolidin-3-yl)methyl)-2-(methoxymethyl)piperazin-1-yl)cyclohexyl)-6-(2-hydroxypropan-2-yl)-2H-indazol-5-yl)pyrrolo[1,2-b]pyridazine-7-carboxamide], the DC50 came out at 12 nM at IRAK4 [1] and 1.1 nM at IRAK4 [2] (setting [4]). For the same molecule, the Dmax amounted to 98% at IRAK4 [1] and 97% on IRAK4 [2] (setting [3]).
For `C[C@H]1CN(CC2CN(c3cc(F)c([C@H]4CCC(=O)NC4=O)c(F)c3)C2)CCN1[C@H]1CC[C@H](n2cc3cc(NC(=O)c4ccc5cc(C#N)cnn45)c(C(C)(C)O)cc3n2)CC1` [Example 306, 3-cyano-N-(2-((1S,4r)-4-((S)-4-((1-(4-((R)-2,6-dioxopiperidin-3-yl)-3,5-difluorophenyl)azetidin-3-yl)methyl)-2-methylpiperazin-1-yl)cyclohexyl)-6-(2-hydroxypropan-2-yl)-2H-indazol-5-yl)pyrrolo[1,2-b]pyridazine-7-carboxamide] the same measures were 8.3 nM, 1.3 nM, 100% and 98%.
Turning to `COc1cc(N2CC[C@@H](C(=O)N3CCN([C@H]4CC[C@H](n5cc6cc(NC(=O)c7ccc8cc(C#N)cnn78)c(C(C)(C)O)cc6n5)CC4)CC3)C2)cc(F)c1N1CCC(=O)NC1=O` [Example 212, 3-cyano-N-(2-((1R,4r)-4-(4-((R)-1-(4-(2,4-dioxotetrahydropyrimidin-1(2H)-yl)-3-fluoro-5-methoxyphenyl)pyrrolidine-3-carbonyl)piperazin-1-yl)cyclohexyl)-6-(2-hydroxypropan-2-yl)-2H-indazol-5-yl)pyrrolo[1,2-b]pyridazine-7-carboxamide], the DC50 was 40 nM at IRAK4 [1] and 3.6 nM at IRAK4 [2] (setting [4]). In addition, the Dmax at IRAK4 [1] was determined as 95%; at IRAK4 [2] (setting [3]), 94%.
For `CC(C)(O)c1cc2nn(C34CC(N5CCN(C(=O)C6CN(c7cc(F)c([C@H]8CCC(=O)NC8=O)c(F)c7)C6)CC5)(C3)C4)cc2cc1NC(=O)c1cccc(C(F)(F)F)n1` [Example 153, (R)—N-(2-(3-(4-(1-(4-(2,6-dioxopiperidin-3-yl)-3,5-difluorophenyl)azetidine-3-carbonyl)piperazin-1-yl)bicyclo[1.1.1]pentan-1-yl)-6-(2-hydroxypropan-2-yl)-2H-indazol-5-yl)-6-(trifluoromethyl)picolinamide] the same measures were 50 nM, 1.6 nM, 94% and 97%.
For `CC(C)(O)c1cc2nn([C@H]3CC[C@H](N4CCN([C@H]5C[C@H](c6ccc(N[C@@H]7CCC(=O)NC7=O)cc6)C5)CC4)CC3)cc2cc1NC(=O)c1ccc2cc(C#N)cnn12` [Example 272, 3-cyano-N-(2-((1R,4r)-4-(4-((1R,3R)-3-(4-(((R)-2,6-dioxopiperidin-3-yl)amino)phenyl)cyclobutyl)piperazin-1-yl)cyclohexyl)-6-(2-hydroxypropan-2-yl)-2H-indazol-5-yl)pyrrolo[1,2-b]pyridazine-7-carboxamide] the same measures were 19 nM, 6.7 nM, 94% and 96%.
